The values that follow come from patent publication US9765092B2, “Tricyclic piperidine compounds” (ACTELION PHARMACEUTICALS LTD, priority 2013, dated 2017).

Molecules are shown by their SMILES.

The target of this test is human TPH1 (Homo sapiens (Human), UniProt P17752). Kind of test: Biochemical in vitro assay using fluorescence readout (TPH1 inhibition).
Setting [1] is: full length human TPH1, 40 μM L-tryptophan, 15° C., 60 minutes, fluorescence at 540 nm, mean if determined several times.
The mark [2] stands for this setting: human TPH1, fluorescence readout.

human TPH1, sequence (P17752 whole entry): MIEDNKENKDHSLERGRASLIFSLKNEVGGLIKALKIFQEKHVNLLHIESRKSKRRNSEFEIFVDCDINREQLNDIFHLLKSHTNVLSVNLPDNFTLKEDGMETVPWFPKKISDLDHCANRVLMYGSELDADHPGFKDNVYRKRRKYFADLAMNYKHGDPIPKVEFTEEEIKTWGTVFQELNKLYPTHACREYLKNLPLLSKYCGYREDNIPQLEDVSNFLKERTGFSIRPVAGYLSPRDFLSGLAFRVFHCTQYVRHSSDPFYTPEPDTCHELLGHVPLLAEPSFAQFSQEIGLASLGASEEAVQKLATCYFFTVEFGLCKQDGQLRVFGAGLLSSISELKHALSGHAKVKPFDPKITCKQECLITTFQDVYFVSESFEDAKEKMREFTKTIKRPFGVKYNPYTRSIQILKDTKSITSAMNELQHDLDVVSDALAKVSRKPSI

As for `Cc1nn2c3c(nc2s1)CCN(C(=O)COc1ccc(N2CCOCC2)nc1Cl)C3c1csc(CO)c1` (centres unmarked) [Example 1.45.1, 2-((2-Chloro-6-morpholinopyridin-3-yl)oxy)-1-(5-(5-(hydroxymethyl)-thiophen-3-yl)-2-methyl-7,8-dihydro-[1,3,4]thiadiazolo[2′,3′:2,3]imidazo[4,5-c]pyridin-6(5H)-yl)ethanone], the IC50 (in general, the point on the concentration scale where inhibition reaches its midpoint) under setting [1] turned out to be 33 nM.

For the compound `Cc1nn2c3c(nc2s1)CCN(C(=O)COc1ccc(N(C)C)nc1Cl)C3c1ccc(C2CC2)cc1F` (centres unmarked) [Example 1.6.22, 2-((2-chloro-6-(dimethylamino)pyridin-3-yl)oxy)-1-(5-(4-cyclopropyl-2-fluorophenyl)-2-methyl-7,8-dihydro-[1,3,4]thiadiazolo[2′,3′:2,3]imidazo[4,5-c]pyridin-6(5H)-yl)ethanone], under setting [2], half-maximal inhibition (IC50) was put at 3 nM. That is a single-digit nanomolar value.

The compound `Cc1nn2c3c(nc2s1)CCN(C(=O)COc1ccc(N2CC(F)(F)C2)cc1Cl)C3c1ccc(Cl)cc1F` (centres unmarked) [Example 1.4.29, 1-(5-(4-Chloro-2-fluorophenyl)-2-methyl-7,8-dihydro-[1,3,4]thiadiazolo[2′,3′:2,3]imidazo[4,5-c]pyridin-6(5H)-yl)-2-(2-chloro-4-(3,3-difluoroazetidin-1-yl)phe-noxy)ethanone] displayed an IC50 under setting [1] of 6 nM.

`CCc1nc(NS(C)(=O)=O)ccc1OCC(=O)N1CCc2nc3sc(C)nn3c2C1c1ccc(C)c(F)c1F` (centres unmarked) [Example 1.61.5, N-(5-(2-(5-(2,3-difluoro-4-methylphenyl)-2-methyl-7,8-dihydro-[1,3,4]thiadiazolo[2′,3′:2,3]imidazo[4,5-c]pyridin-6(5H)-yl)-2-oxoethoxy)-6-ethylpyridin-2-yl)methanesulfonamide] registered an IC50 under setting [2] of 9 nM. That is a single-digit nanomolar value.

Under setting [1], `CNc1ccc(OCC(=O)N2CCc3nc4sc(C)nn4c3C2c2ccc(Cl)cc2F)c(Cl)n1` (centres unmarked) [Example 1.4.27, 1-(5-(4-Chloro-2-fluorophenyl)-2-methyl-7,8-dihydro-[1,3,4]thiadiazolo[2′,3′:2,3]imidazo[4,5-c]pyridin-6(5H)-yl)-2-((2-chloro-6-(methylamino)pyridin-3-yl)oxy)ethanone] yielded an IC50 of 6 nM.

`CNC(=O)c1csc(C2c3c(nc4sc(C)nn34)CCN2C(=O)COc2ccc(C(F)(F)F)cc2Cl)n1` (centres unmarked) [Example 1.44.1, 2-(6-(2-(2-Chloro-4-(trifluoromethyl)phenoxy)acetyl)-2-methyl-5,6,7,8-tetrahydro-[1,3,4]thiadiazolo[2′,3′:2,3]imidazo[4,5-c]pyridin-5-yl)-N-methylthiazole-4-carboxamide]: under setting [1], the IC50 amounted to 311 nM.

Compound `Cc1nn2c3c(nc2s1)CCN(C(=O)COc1ccc(C(=O)N(C)C)nc1Cl)C3c1ncc(Cl)cc1F` (centres unmarked) [Example 1.33.3, 6-chloro-5-(2-(5-(5-chloro-3-fluoropyridin-2-yl)-2-methyl-7,8-dihydro-[1,3,4]thiadiazolo[2′,3′:2,3]imidazo[4,5-c]pyridin-6(5H)-yl)-2-oxoethoxy)-N,N-dimethylpicolinamide] yielded an IC50 under setting [2] of 6 nM. That is a single-digit nanomolar value.

Consider `Cc1nn2c3c(nc2s1)CCN(C(=O)COc1ccc(N(C)C)nc1Cl)C3c1cc(CN(C)C)cs1` (centres unmarked) [Example 1.8.4, 2-((2-chloro-6-(dimethylamino)pyridin-3-yl)oxy)-1-(5-(4-((dimethylamino)methyl)thiophen-2-yl)-2-methyl-7,8-dihydro-[1,3,4]thiadiazolo[2′,3′:2,3]imidazo[4,5-c]pyridin-6(5H)-yl)ethanone], for which it took 106 nM to reach half-maximal inhibition under setting [2] (IC50).

For `CCOC(=O)c1csc(C2c3c(nc4sc(C)nn34)CCN2C(=O)COc2ccc(N3CCOCC3)nc2Cl)n1` (centres unmarked) [Example 1.27.1, ethyl 2-(6-(2-((2-chloro-6-morpholinopyridin-3-yl)oxy)acetyl)-2-methyl-5,6,7,8-tetrahydro-[1,3,4]thiadiazolo[2′,3′:2,3]imidazo[4,5-c]pyridin-5-yl)thiazole-4-carboxylate], the IC50 under setting [2] stood at 7 nM.

In turn, `Cc1cnc(C2c3c(nc4sc(C)nn34)CCN2C(=O)COc2ccc(C#N)cc2Cl)c(F)c1` (centres unmarked) [Example 1.31.4, 3-chloro-4-(2-(5-(3-fluoro-5-methylpyridin-2-yl)-2-methyl-7,8-dihydro-[1,3,4]thiadiazolo[2′,3′:2,3]imidazo[4,5-c]pyridin-6(5H)-yl)-2-oxoethoxy)benzonitrile] registered an IC50 under setting [2] of 49 nM.

The compound `Cc1nn2c3c(nc2s1)CCN(C(=O)COc1ccc(NS(C)(=O)=O)nc1Cl)C3c1ncc(C2CC2)cc1F` (centres unmarked) [Example 1.14.13, N-(6-chloro-5-(2-(5-(5-cyclopropyl-3-fluoropyridin-2-yl)-2-methyl-7,8-dihydro-[1,3,4]thiadiazolo[2′,3′:2,3]imidazo[4,5-c]pyridin-6(5H)-yl)-2-oxoethoxy)pyridin-2-yl)methanesulfonamide] had an IC50 under setting [2] of 7 nM.

The compound `Cc1nn2c3c(nc2s1)CCN(C(=O)COc1ccc(N(C)C)nc1Cl)C3c1ccc(Cl)nc1F` (centres unmarked) [Example 1.16.1, 1-(5-(6-chloro-2-fluoropyridin-3-yl)-2-methyl-7,8-dihydro-[1,3,4]thiadiazolo[2′,3′:2,3]imidazo[4,5-c]pyridin-6(5H)-yl)-2-((2-chloro-6-(dimethylamino)pyridin-3-yl)oxy)ethanone] came in with an IC50 under setting [2] of 5 nM.

For the compound `Cc1nc(C)c(C2c3c(nc4sc(C)nn34)CCN2C(=O)COc2ccc(-c3ncco3)nc2Cl)s1` (centres unmarked) [Example 1.68.3, 2-((2-chloro-6-(oxazol-2-yl)pyridin-3-yl)oxy)-1-(5-(2,4-dimethylthiazol-5-yl)-2-methyl-7,8-dihydro-[1,3,4]thiadiazolo[2′,3′:2,3]imidazo[4,5-c]pyridin-6(5H)-yl)ethanone], under setting [2], the concentration for half-maximal inhibition (IC50) came to 9 nM.

In turn, `Cc1nn2c3c(nc2s1)CCN(C(=O)COc1ccc(C(=O)NC2CC2)nc1Cl)C3c1ccc(C(C)(C)O)cc1F` (centres unmarked) [Example 1.80.2, 6-chloro-N-cyclopropyl-5-(2-(5-(2-fluoro-4-(2-hydroxypropan-2-yl)phenyl)-2-methyl-7,8-dihydro-[1,3,4]thiadiazolo[2′,3′:2,3]imidazo[4,5-c]pyridin-6(5H)-yl)-2-oxoethoxy)picolinamide] displayed an IC50 under setting [2] of 65 nM.

In the case of `Cc1nn2c3c(nc2s1)CCN(C(=O)COc1cnc(N(C)C)nc1Cl)C3c1ccc(Cl)cc1F` (centres unmarked) [Example 1.4.40, 2-((4-chloro-2-(dimethylamino)pyrimidin-5-yl)oxy)-1-(5-(4-chloro-2-fluorophenyl)-2-methyl-7,8-dihydro-[1,3,4]thiadiazolo [2′,3′:2,3]imidazo[4,5-c]pyridin-6(5H)-yl)ethanone], under setting [2], the IC50 came to 4 nM.

`Cc1nn2c3c(nc2s1)CCN(C(=O)COc1ccc(NS(C)(=O)=O)nc1Cl)C3c1sc(C(C)C)nc1C` (centres unmarked) [Example 1.73.1, N-(6-chloro-5-(2-(5-(2-isopropyl-4-methylthiazol-5-yl)-2-methyl-7,8-dihydro-[1,3,4]thiadiazolo[2′,3′:2,3]imidazo[4,5-c]pyridin-6(5H)-yl)-2-oxoethoxy)pyridin-2-yl)methanesulfonamide] registered an IC50 under setting [2] of 60 nM.

`CS(=O)(=O)Nc1ccc(OCC(=O)N2CCc3nc4sccn4c3C2c2sccc2F)c(Cl)c1` (centres unmarked) [Example 6.8.5, N-(3-chloro-4-(2-(5-(3-fluorothiophen-2-yl)-7,8-dihydro-thiazolo[2′,3′:2,3]imidazo[4,5-c]pyridin-6(5H)-yl)-2-oxoethoxy)phenyl)methanesulfonamide]: under setting [2], inhibition was half-maximal at 9 nM (IC50).
